Assay results reported in paper PMC6156121 (Science Advances, 2018).

How the values were obtained:
Experiment in all cases: IP kinase assay, GST-P70S6K peptide, anti-p-P70S6K Thr389 immunoblot
Assay type in all cases: biochemical
Settings in all cases: […] inhibitor, […] ATP, […] MgCl2, pH […] C; ATP-competitive
mTORC1 = mTORC1 (Homo sapiens, UniProt P42345)
mTORC2 = mTORC2 (Homo sapiens, UniProt P42345)
mTORC3 = mTORC3 (Homo sapiens, UniProt P42345)

COc1ccc(-c2ccc3c(N4CCOC[C@@H]4C)nc(N4CCOC[C@@H]4C)nc3n2)cc1CO [AZD-8055]
IP kinase assay, GST-P70S6K peptide, anti-p-P70S6K Thr389 immunoblot (mTORC1): inhibited the kinase activity of all mTORCs
IP kinase assay, GST-P70S6K peptide, anti-p-P70S6K Thr389 immunoblot (mTORC2): inhibited the kinase activity of all mTORCs
IP kinase assay, GST-P70S6K peptide, anti-p-P70S6K Thr389 immunoblot (mTORC3): preincubation with OSI-27 or AZD-8055 at an mTOR-specific concentration inhibited the kinase activity

COc1cccc2cc(-c3nc([C@H]4CC[C@H](C(=O)O)CC4)n4ncnc(N)c34)[nH]c12 [OSI-27]
IP kinase assay, GST-P70S6K peptide, anti-p-P70S6K Thr389 immunoblot (mTORC1): inhibited the kinase activity of all mTORCs
IP kinase assay, GST-P70S6K peptide, anti-p-P70S6K Thr389 immunoblot (mTORC2): inhibited the kinase activity of all mTORCs
IP kinase assay, GST-P70S6K peptide, anti-p-P70S6K Thr389 immunoblot (mTORC3): preincubation with OSI-27 or AZD-8055 at an mTOR-specific concentration inhibited the kinase activity
